In PubChem BioAssay AID2060488 (Molecular Pharmacology Branch, DTP, NCI, 2025):

Test system: 966289-007-R4-J1-PDC complex spheroid viability
Experiment: Anticancer human tumor 966289-007-R4-J1-PDC patient-derived pancreatic adenocarcinoma cell line growth inhibition [GQUAD]
Settings: for IC50: curve of first compound; for viability, T/C: stronger effect = lower value
How it was run: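 Multi-cell-type spheroids of tumor cells with HUVEC and mesenchymal stem cells, treated with drug combinations. Concentrations descend in half-log steps from near clinical Cmax, or from 10 microM where Cmax is unknown; viability read-out.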

[1] = second compound 0.0316 µM, first compound 0.0316 µM
[2] = second compound 0.0316 µM, first compound 0.1 µM
[3] = second compound 0.0316 µM, first compound 0.316 µM
[4] = second compound 0.0316 µM, first compound 1 µM
[5] = second compound 0.0316 µM, first compound 3.16 µM
[6] = second compound 0.0316 µM, first compound 10 µM
[7] = second compound 0.1 µM, first compound 0.0316 µM
[8] = second compound 0.1 µM, first compound 0.1 µM
[9] = second compound 0.1 µM, first compound 0.316 µM
[10] = second compound 0.1 µM, first compound 1 µM
[11] = second compound 0.1 µM, first compound 3.16 µM
[12] = second compound 0.1 µM, first compound 10 µM
[13] = second compound 0.316 µM, first compound 0.0316 µM
[14] = second compound 0.316 µM, first compound 0.1 µM
[15] = second compound 0.316 µM, first compound 0.316 µM
[16] = second compound 0.316 µM, first compound 1 µM
[17] = second compound 0.316 µM, first compound 3.16 µM
[18] = second compound 0.316 µM, first compound 10 µM
[19] = second compound 1 µM, first compound 0.0316 µM
[20] = second compound 1 µM, first compound 0.1 µM
[21] = second compound 1 µM, first compound 0.316 µM
[22] = second compound 1 µM, first compound 1 µM
[23] = second compound 1 µM, first compound 3.16 µM
[24] = second compound 1 µM, first compound 10 µM
[25] = second compound 3.16 µM, first compound 0.0316 µM
[26] = second compound 3.16 µM, first compound 0.1 µM
[27] = second compound 3.16 µM, first compound 0.316 µM
[28] = second compound 3.16 µM, first compound 1 µM
[29] = second compound 3.16 µM, first compound 3.16 µM
[30] = second compound 3.16 µM, first compound 10 µM
[31] = second compound 10 µM, first compound 0.0316 µM
[32] = second compound 10 µM, first compound 0.1 µM
[33] = second compound 10 µM, first compound 0.316 µM
[34] = second compound 10 µM, first compound 1 µM
[35] = second compound 10 µM, first compound 3.16 µM
[36] = second compound 10 µM, first compound 10 µM
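Also: spheroids exposed to the agents for seven days before readout.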
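For viability, T/C in this document: percent viability relative to DMSO vehicle control wells taken as 100%.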

Nc1ccn(C2OC(CO)C(O)C2(F)F)c(=O)n1 (centres undefined) + Cc1[nH]c2ccc(F)cc2c1-c1nc2c3cccnc3c3ncccc3c2[nH]1
IC50 (second compound 0.0316 µM): < 0.0316 µM
IC50 (second compound 0.1 µM): < 0.0316 µM
IC50 (second compound 0.316 µM): < 0.0316 µM
IC50 (second compound 1 µM): < 0.0316 µM
IC50 (second compound 3.16 µM): < 0.0316 µM
IC50 (second compound 10 µM): < 0.0316 µM
viability, T/C [1]: 7.33%
viability, T/C [2]: 1.13%
viability, T/C [3]: 0.84%
viability, T/C [4]: 0.84%
viability, T/C [5]: 1.15%
viability, T/C [6]: 0.76%
viability, T/C [7]: 7.75%
viability, T/C [8]: 1%
viability, T/C [9]: 1.28%
viability, T/C [10]: 1.1%
viability, T/C [11]: 0.83%
viability, T/C [12]: 0.76%
viability, T/C [13]: 5.74%
viability, T/C [14]: 1.09%
viability, T/C [15]: 1.33%
viability, T/C [16]: 0.83%
viability, T/C [17]: 0.67%
viability, T/C [18]: 0.86%
viability, T/C [19]: 7.53%
viability, T/C [20]: 0.98%
viability, T/C [21]: 1.01%
viability, T/C [22]: 0.85%
viability, T/C [23]: 0.92%
viability, T/C [24]: 0.83%
viability, T/C [25]: 4.68%
viability, T/C [26]: 1.2%
viability, T/C [27]: 1.1%
viability, T/C [28]: 0.82%
viability, T/C [29]: 1.7%
viability, T/C [30]: 0.93%
viability, T/C [31]: 2.75%
viability, T/C [32]: 1.07%
viability, T/C [33]: 0.98%
viability, T/C [34]: 0.76%
viability, T/C [35]: 1.44%
viability, T/C [36]: 0.94%

O=c1[nH]cc(F)c(=O)[nH]1 + Cc1[nH]c2ccc(F)cc2c1-c1nc2c3cccnc3c3ncccc3c2[nH]1
IC50 (second compound 0.0316 µM): 0.159 µM
IC50 (second compound 0.1 µM): 0.186 µM
IC50 (second compound 0.316 µM): 0.181 µM
IC50 (second compound 1 µM): 0.164 µM
IC50 (second compound 3.16 µM): 0.15 µM
IC50 (second compound 10 µM): 0.0934 µM
viability, T/C [1]: 111%
viability, T/C [2]: 74.5%
viability, T/C [3]: 13.6%
viability, T/C [4]: 5.76%
viability, T/C [5]: 6.03%
viability, T/C [6]: 6.51%
viability, T/C [7]: 112%
viability, T/C [8]: 92.4%
viability, T/C [9]: 13.9%
viability, T/C [10]: 6.57%
viability, T/C [11]: 5.93%
viability, T/C [12]: 6.8%
viability, T/C [13]: 95.9%
viability, T/C [14]: 90.5%
viability, T/C [15]: 12.1%
viability, T/C [16]: 7.51%
viability, T/C [17]: 5.56%
viability, T/C [18]: 6.35%
viability, T/C [19]: 96.3%
viability, T/C [20]: 76.5%
viability, T/C [21]: 14.8%
viability, T/C [22]: 7.21%
viability, T/C [23]: 6.11%
viability, T/C [24]: 6.82%
viability, T/C [25]: 110%
viability, T/C [26]: 68.8%
viability, T/C [27]: 15.2%
viability, T/C [28]: 9.36%
viability, T/C [29]: 7.92%
viability, T/C [30]: 9.72%
viability, T/C [31]: 114%
viability, T/C [32]: 46%
viability, T/C [33]: 14.6%
viability, T/C [34]: 9.18%
viability, T/C [35]: 6.61%
viability, T/C [36]: 7.61%
